# Results as given in paper PMC10447463, “Data-mining unveils structure–property–activity correlation of viral infectivity enhancing self-assembling peptides” (Nature Communications, 2023).
# Experiments:
# [1] = Turbidity, derived count rate of scattered light; assay type: physicochemical
# Outline: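 Samples: 1 mg/mL in PBS pH 7.4 (from DMSO), 1 d at RT, then diluted in 1 mM KCl immediately before measurement. Triplicates, two independent runs averaged.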
# [2] = Turbidity, derived count rate of scattered light; assay type: physicochemical; remark: listed apart in the source
# [3] = β-sheet content by ATR-FT-IR; assay type: physicochemical; conditions: Fig. S7 panel A; β-sheet content by ATR-FT-IR
# Outline: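 Conversion rate: fluorescamine fluorescence (ex 365/em 470 nm, 20 min RT) of 3 kDa filtrate versus unfiltered PNF, CR = 100 − 100 × filtrate/original intensity, triplicates. β-sheet content came from ATR FT-IR of lyophilized 1 mg/mL PNF powder, 64 scans.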
# [4] = Zeta-potential measurement; assay type: physicochemical
# Outline: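 Readout: zeta potential (mV) derived by Smoluchowski from measured electrophoretic mobility. Preformed aggregates (1 mg/mL peptide, PBS pH 7.4, RT for 1 d) were diluted into dilute KCl electrolyte (1 mM) shortly before analysis.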
# [5] = system: HIV-1 infection of TZM-bl cells; assay: HIV-1 infectivity enhancement assay, β-galactosidase luminescence; assay type: cell-based; conditions: for Log Infectivity: Log10 infection relative to EF-C, TZM-bl cells, asymmetric std dev errors; for Log10 Infection Rel EF-C: HIV-1 infection of TZM-bl cells
substance,measurement,setting,value
KAKAQA,Log10 Count Rate,[1]; Log10 of derived count rate of scattered light (turbidity),1.321
same,Count Rate / kcps,"[1]; derived count rate of scattered light at 633 nm, 173°, from zeta-potential measurement, 0.1 mg/mL in 1 mM KCl after 1 d at 1 mg/mL in PBS, turbidity / microscopic aggregation, mean of triplicate",21 kcps
same,Log10 Count Rate,"[1]; turbidity, Log10 of derived count rate of scattered light, Figure 3A source data",1.321
same,Log10 Count Rate,"[1]; turbidity, log10 of derived count rate of scattered light",1.321
same,Count Rate,[2]; derived count rate of scattered light (turbidity),20.93
same,Log10 Count Rate,"[2]; turbidity, derived count rate of scattered light, log10, data of Figure 2D",1.321
same,b -sheet / %,[3],40.34%
same,Zeta-Pot.,[4]; zeta potential of peptide assemblies,-14.08
same,Zeta-Potential / mV,"[4]; zeta-potential of peptide, source data of Figure 2C",-10.04 mV
same,Zeta-Potential / mV,"[4]; zeta-potential of the peptide assemblies, mean, Figure 3A source data",-14.08 mV
same,Rel-EFC,"[5]; 1.3 µM peptide, infection relative to EF-C (QCKIKQIINMWQ = 1)","0,02"
same,Log10 Infection Rel EFC,"[5]; 1.3 µM peptide, log10 of infection relative to EF-C","-1,74"
same,Log Infectivity,[5]; Fig. S7 panel A (plotted against β-sheet content),-1.743
same,Log Infectivity,"[5]; Fig. S7 panel B (plotted against CR), rounded to two decimals",-1.74
same,Log10 Infection Rel EF-C,"[5]; Log10 of infection rate relative to EF-C, Figure 3A source data",-1.74
same,Log10 Infection Rel EF-C,"[5]; infection rate relative to EF-C, log10, data of Figure 2D",-1.743
same,Log10 Infection Rel EF-C,"[5]; infection rate relative to EF-C, log10, source data of Figure 2C",-1.743
same,Log10 Inf. rel. to EF-C,[5]; log10 of HIV-1 infection of TZM-bl cells relative to EF-C (EF-C = 0),-1.743
same,Abs. Infection at 0.26 µM,"[5]; peptide 0.26 µM, mean of n = 3, Figure 4A",100
same,Infect 1 0.26 µM,"[5]; peptide 0.26 µM, replicate 1, absolute infection signal, Figure 4A",-23.33
same,Infect 2 0.26 µM,"[5]; peptide 0.26 µM, replicate 2, absolute infection signal, Figure 4A",166.67
same,Infect 3 0.26 µM,"[5]; peptide 0.26 µM, replicate 3, absolute infection signal, Figure 4A",156.67
same,Abs. Infection at 1.3 µM,"[5]; peptide 1.3 µM, mean of n = 3, Figure 4A",146.7
same,Infect 1 .3 µM,"[5]; peptide 1.3 µM, replicate 1, absolute infection signal, Figure 4A",126.67
same,Infect 2 1.3µM,"[5]; peptide 1.3 µM, replicate 2, absolute infection signal, Figure 4A",46.67
same,Infect 3 1.3 µM,"[5]; peptide 1.3 µM, replicate 3, absolute infection signal, Figure 4A",266.67
